Source: patent publication US12624123B2, “Compositions and methods for reducing off-target toxicity of antibody drug conjugates” (The Research Foundation for The State University of New York, priority 2019, dated 2026)
“And” between values parts separate entries of the source, which are not always exact repeats. Identical values can stand only once. “Also recorded” adds a separate entry of the source. Like-named read-outs stand apart in the source and are kept apart here. Square brackets hold non-standard residues; d marks the D form. Peptide text beside a SMILES is read from it. * marks the point of attachment. Dolaproine = CO[C@@H]([C@@H]1CCCN1)[C@@H](C)C(=O)O; Dil = CC[C@H](C)[C@H](NC)[C@@H](CC(=O)O)OC; X1 = C[C@@H](N*)[C@@H](O)c1ccccc1; NMeV = CN[C@H](C(=O)O)C(C)C

Assays:
MOLM-14 cells = experiment: MTT cytotoxicity of DM4 on MOLM-14 cells (DF3A2); assay type: cell-based, human
Experimental: (§1) Log-phase Lovo or MOLM-14 cells were seeded in 96-well microtiter plates at a density of 5,000 cells/well, in 100 μL or 70 μL of culture medium, respectively. Lovo cells were allowed to adhere for 24 h before cell culture media was aspirated and replaced with 100 μL of PBS containing a range of treatment for 6h, then washed for 2 times before replacing with fresh media and incubated for additional 90 h. MOLM-14 cells were re-suspended with treatment solutions, where 100 μL of cell-treatment suspension was aliquoted into wells of a 96-well plate for 24 h. Treatment solutions consisted of DM-4 with or without purified anti-drug sdAb. For MOLM-14 cells, 10 μL of MTT solution (5 mg/mL in pH 7.4 1× PBS) was added directly to wells following treatment incubation. For adherent cells, treatment media was aspirated from wells and cells were washed three times with 100 μL of fresh media. Following the final wash, 100 μL of complete media and 25 μL of MTT solution were added to each well. Cells were incubated for 4 h in order to allow cells to reduce MTT to formazan dye. Once MTT was reduced, 100 μL of 10% SDS prepared in 0.01 M HCl was added to each well and incubated overnight to solubilize the formazan crystals. Formazan dye was measured at 570 nm and normalized by cell debris at 690 nm.

Lovo cells = experiment: MTT cytotoxicity of DM1 and DM4 on Lovo cells; assay type: cell-based; settings: for IC50: DM4 alone, read-out: IC50 of DM4
Experimental: as §1, with “Lovo cells were allowed to adhere for 24 h before cell culture media was aspirated and replaced with 100 μL of PBS containing a range of treatment for 6h, then washed for 2 times before replacing with fresh media and incubated for additional 90 h.” left out

8C2 Fab = experiment: Competitive SPR assay on exatecan chip; assay type: binding; settings: 5 nM Fab, 1 hour incubation
Experimental: Exatecan was immobilized onto a CMS chip through amine coupling. […] Dilutions were incubated for one hour and subsequently injected over the exatecan immobilized chip. The observed maximum response data was fit to a 3 parameter inhibition equation in GraphPad Prism 7.
B/Bo is signal reached after a 3.5 minute injection with spiked in drugs divided by signal with Fab alone.

SKBR3 cells = experiment: Competitive cell assay with SKBR3 cells; assay type: cell-based
Experimental: SKBR3 cells were diluted to 4000 cells/100 μL and 100 μL was added to individual wells of a 96 well culture plate. Cells were incubated overnight to allow cells to adhere to the plate. […] Dxd and SN38 were diluted at the indicated concentrations and incubated for 90 minutes. Following incubation dilutions were added to individual wells in triplicate with fresh media dilutions added on day 1, 3 and 5 with cell viability evaluated on day 7 using an MTT assay.

NCI-N87 cells [1] = experiment: Cytotoxicity of MMAE and T-vc-MMAE in NCI-N87 cells with or without plasma; assay type: cell-based; settings: 96 h, MMAE alone
Experimental: (§2) Log-phase MOLM-14, Ramos (RA 1), HT-29, LS174T, or NCI-N87 cells were seeded in 96-well microtiter plates at a density of 20,000 cells/well, 20,000 cells/well, 5,000 cells/well, 5,000 cells/well, and 10,000 cells/well, respectively, in 100 μL of culture medium. HT-29, LS174T, and NCI-N87 cells were allowed to adhere for 24 h before cell culture media was aspirated and replaced with 100 μL of fresh media containing a range of treatment for, 48 (LS174T), 96 (NCI-N87), or 120 (HT-29) h. MOLM-14 and Ramos cells were re-suspended with treatment solutions, where 100 μL of cell-treatment suspension was aliquoted into wells of a 96-well plate for 24 h. Treatment solutions consisted of calicheamicin, MMAE, topotecan, or SN38 with or without immunized animal plasma, purified anti-drug antibody, or antibody-drug conjugate (ADC) with or without plasma or anti-drug antibody. For MOLM-14 and Ramos cells, 25 μL of MTT solution (5 mg/mL in pH 7.4 1× PBS) was added directly to wells following treatment incubation. For adherent cells, treatment media was aspirated from wells and cells were washed three times with 100 μL of fresh media. Following the final wash, 100 μL of complete media and 25 μL of MTT solution were added to each well.

HT-29 cells = experiment: Competitive cell cytotoxicity (MTT) assay with HT-29 cells; assay type: cell-based; settings: in absence of 8C2, read-out: IC50 of SN38
Experimental: as §2

8C2 mAb = experiment: Competitive ELISA of 8C2 with topotecan and SN38 (BSA-topotecan coated); assay type: binding, murine; settings: 8C2 held constant at 10 nM; read-out: IC50 in competitive ELISA vs intact 8C2
Experimental: A competitive ELISA was employed to determine the affinity of intact 8C2 mAb for SN38 and topotecan. A BSA-topotecan conjugate was synthesized and immobilized as previously described (Shah et al., Int J Pharm. 2014; 465(1-2):228-238. doi:10.1016/j.ijpharm.2014.01.038) 8C2 concentration was held constant at 10 nM with increasing concentrations of topotecan or SN38. 8C2 drug samples were incubated for 2 hours at room temperature with agitation. Following incubation, wells were washed three times with 250 μL of PBS-T and three times with dH2O. Wells were then incubated with a 1:500 dilution anti-mouse AP conjugate secondary in PBS-T with 3% BSA for 1 h. After washing, 250 μL of 4 mg/ml PNPP in diethanolamine buffer pH 9.8 with absorbance being read at 405 nm. The change in absorbance over time data was fit to a four-parameter function in GraphPad Prism 7.

[2] = SPR dissociation screening on DM1-Biotin chip; assay type: binding; settings: 20 min dissociation phase
Experimental: Preliminary screening of DM1/4 binders were performed using a neutravidin SPR chip with DM1-Biotin on the left channel. Phagemid purified sdAbs were flowed over the SPR chip for 2 minutes at a flow rate of 25 ul/min. After binding, sdAb was dissociated for 20 minutes. Observed sensorgrams were fit to an individual dissociation rate constant for each construct. Equilibrium and kinetic binding of 3A2 was assessed using a CM5 SPR chip with TDM1 immobilized on the left channel. […] Rate constants for 3A2-TDM1 association and dissociation were obtained through fitting of the observed sensorgrams for the 1.25, 2.5, 5, 7.5 and 10 nM injections to a 1:1 Langmuir binding model.

NCI-N87 cells [3] = experiment: NCI-N87 pulse cytotoxicity assay with C7 sdAb prep; assay type: cell-based; settings: NCI-N87, 2 h pulse, 96 h with sdAb prep diluted 1:6.67
Experimental: FIG. 43. Purification of C7 sdAb from BL21(DE3) transformed E. coli cells and inhibitory cell cytotoxicity assays. C7 sdAb was expressed to the periplasm using a pelB leader sequence and purified using IMAC Ni-NTA resin. […] Although the product was crude, it was employed in cell cytotoxicity assays. NCI-N87 cells were seeded at a density of 10,000 cells/well and pulse with treatment solutions for 2 h. After treatment removal and washing, cells were incubated for 96 h with sdAb prep, diluted 1:6.67 with fresh culture medium.
From the single domain library, there were nine positive hits from three rounds of panning against BSA-MMAF/T-vc-MMAE. The screening of isolated colonies determined all were inhibited by incubation with free MMAE (FIG. 42), with three >10-fold inhibition. One colony, C7 was selected for infection of BL21(DE3) cells and protein expression.

[4] = 8C2 VHH binding to SN38 immobilized on magnetic beads
Experimental: The complementarily determining regions of the 8C2 heavy chain were placed into the stable human framework m0 that was reported by Dimitrov et al (PMID 18687338). DNA encoding for the 8C2 VHH was synthesized by GeneArt. DNA sequences were ligated into the Pet22b vector between the XhoI and NdeI restriction enzyme sites. DNA was transformed into Shuffle T7 express E. coli cells and expressed using standard recombinant expression. To evaluate binding activity, 8C2 VHH was incubated with SN38 immobilized onto magnetic beads and bound VHH detected with an anti-HIS tag HRP labeled reporter antibody. Intact 8C2 mAb was incubated alone and in-combination with 8C2 VHH and 8C2 mAb binding evaluated with an anti-mouse IgG HRP reporter antibody.

COc1cc2cc(c1Cl)N(C)C(=O)C[C@H](OC(=O)[C@H](C)N(C)C(=O)CCC(C)(C)S)[C@]1(C)O[C@H]1[C@H](C)[C@@H]1C[C@@](O)(NC(=O)O1)[C@H](OC)/C=C/C=C(\C)C2 [DM4]
IC50 (MOLM-14 cells; DM4 alone): 18 nM and 18.4 nM | IC50 (Lovo cells; 6 h exposure): 7.7 nM and 21.5 nM | IC50 (Lovo cells; 24 h exposure): 0.713 nM and 1.84 nM

CC[C@@]1(O)C(=O)OCc2c1cc1n(c2=O)Cc2c-1nc1cc(F)c(C)c3c1c2[C@@H](NC(=O)CO)CC3 [Dxd]
IC50 for inhibition of Fab binding to immobilized exatecan (8C2 Fab): low-nanomolar | IC50 (SKBR3 cells; viability day 7, read-out: IC50 of Dxd alone): 0.7 nM

CC[C@H](C)[C@@H]([C@@H](CC(=O)N1CCC[C@H]1[C@H](OC)[C@@H](C)C(=O)N[C@H](C)[C@@H](O)c1ccccc1)OC)N(C)C(=O)[C@@H](NC(=O)[C@@H](NC)C(C)C)C(C)C [MMAE, monomethyl auristatin E] (H-[NMeV]V[Dil][Dolaproine]-X1)
IC50 (NCI-N87 cells [1]): 0.496 ± 0.0327 nM

CCc1c2c(nc3ccc(O)cc13)-c1cc3c(c(=O)n1C2)COC(=O)[C@]3(O)CC [SN38]
IC50 for inhibition of Fab binding to immobilized exatecan (8C2 Fab): low-nanomolar | IC50 (HT-29 cells): 8 nM | IC50 (SKBR3 cells; viability day 7, read-out: IC50 of free SN38): 1.4 nM | IC50 (8C2 mAb): 10.3 nM

B1: DF3A2 (protein)
VHH: QVQLQESGGGLVQPGGSLRLSCAASGGIFGISYMGWYRQAPGKQREPVALITSGGDTAYGDSVKGRFAISRDNAKNTVYLQMNSLKPDDTSAYYCAAGFYRSDSPNRYDYWGQGTQVTVSS
modifications: DF3A2
fold inhibition of DM4 cytotoxicity (MOLM-14 cells): 2.1 fold | fold shift of DM4 IC50 (Lovo cells; 6 h exposure): 11 fold | dissociation kinetics [2]: longest dissociation rates; also recorded: longer dissociation rates

B2: MC7 (protein)
VHH: QVQLVQSGGGLVQAGGSLRLSCVASGRTFSMYRMGWFRQAPGKEREFVASIRWSGGSTYYTDSVKDRFTISRDNAKNTVYLQMNSLKPEDTAVYYCAADPVWRLNSWYRGAVGYWGQGTQVTVSS
modifications: MC7
fold enhancement of T-vc-MMAE cytotoxicity (NCI-N87 cells [3]): 5.2 fold | fold inhibition of MMAE cytotoxicity (NCI-N87 cells [3]): 5.6 fold

B3: 8C2 VHH: heavy chain CDRs of 8C2 placed into a stable human framework, SEQ ID NO:69 (protein)
VHH: QVQLVQSGGGLVQPGGSLRLSCAASGFNIKDTYIHWMSWVRQAPGKGLEWVSPDLANDNTKYDPKYYADSVKGRFTISRDNSKNTLYLQMNTLRAEDTAVYYCATWGAIITLGGWGQTMVTVSS
modifications: 8C2 VHH
increase in binding signal vs beads with blank buffer ([4]; anti-HIS detection): 2 × | decrease of 8C2 mAb binding by addition of 8C2 VHH ([4]; anti-mouse IgG detection): ~2 fold
